Assay results reported in patent US20080051387A1, “TETRAHYDROPYRIDO[3,4-D]PYRIMIDINES AND RELATED ANALOGUES” (priority 2006, published 2008).
Like-named read-outs stand apart in the source and are kept apart here.

Target: T1, chimeric human H3 receptor (Homo sapiens, UniProt Q9Y5N1)
T1 construct: rat Galpha-i2 (Gnai2, rat); made in house; host or cells: Sf9 insect cells (baculovirus); P2 membranes
Experiment: Chimeric human H3 receptor screening GTP binding assay (inhibition of histamine-stimulated GTP-gamma35S binding, Example 8)
Assay type: biochemical
In short: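 Compound tested at 4 μM against 1 μM histamine stimulation; 125 pM GTP-gamma35S binding measured by filtration and scintillation after 60 min at room temperature. Membranes from Sf9 cells expressing chimeric human H3 plus G-protein subunits, in Tris pH 7.4/NaCl/MgCl2/GDP buffer; values are % inhibition after nonspecific subtraction.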

[1] = 1 h, assay described in Example 8, symbol "!" in column headed Ki, read-out: Ki ("!": percent inhibition of agonist-induced GTP-gammaS binding to H3)
[2] = 1 h, assay of Example 8, symbol "!" in column headed Ki, read-out: percent inhibition of agonist-induced GTP-gammaS binding to H3

T1 sequence (Q9Y5N1 with tags, fused parts or gaps): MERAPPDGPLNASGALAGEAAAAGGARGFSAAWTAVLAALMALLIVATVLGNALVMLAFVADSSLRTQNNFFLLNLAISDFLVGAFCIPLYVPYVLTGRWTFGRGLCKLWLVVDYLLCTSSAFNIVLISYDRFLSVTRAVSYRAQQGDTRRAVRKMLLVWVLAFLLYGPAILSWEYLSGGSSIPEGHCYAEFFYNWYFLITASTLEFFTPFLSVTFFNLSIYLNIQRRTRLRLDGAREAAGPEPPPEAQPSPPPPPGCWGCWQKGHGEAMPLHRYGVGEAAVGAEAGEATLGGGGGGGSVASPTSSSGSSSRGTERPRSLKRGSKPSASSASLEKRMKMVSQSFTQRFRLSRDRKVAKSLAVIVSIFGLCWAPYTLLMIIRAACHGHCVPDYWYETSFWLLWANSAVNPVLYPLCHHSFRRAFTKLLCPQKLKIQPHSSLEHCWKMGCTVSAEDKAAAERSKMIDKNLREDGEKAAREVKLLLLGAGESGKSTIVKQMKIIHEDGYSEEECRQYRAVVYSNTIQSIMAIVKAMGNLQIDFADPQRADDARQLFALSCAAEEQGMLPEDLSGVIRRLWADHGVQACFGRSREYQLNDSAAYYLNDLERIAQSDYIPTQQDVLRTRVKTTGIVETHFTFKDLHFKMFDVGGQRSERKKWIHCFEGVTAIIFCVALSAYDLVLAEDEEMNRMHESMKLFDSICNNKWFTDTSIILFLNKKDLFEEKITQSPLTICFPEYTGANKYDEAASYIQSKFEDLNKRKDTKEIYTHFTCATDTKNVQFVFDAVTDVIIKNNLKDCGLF

Row | Compound | inhibition at 4 µM [1] [%] | inhibition at 4 µM [2] [%] | further results
1 | Cc1ccsc1C(=O)N1CCc2cnc(N3CCN(C4CCC4)CC3)nc2CC1 [Compound 444, 2-(4-cyclobutylpiperazin-1-yl)-7-[(3-methyl-2-thienyl)carbonyl]-6,7,8,9-tetrahydro-5H-pyrimido[4,5-d]azepine] | ≥ 90 |  | 
2 | c1nc2c(c(N3CCN(C4CCC4)CC3)n1)CCN(Cc1ccc3c(c1)OCCO3)C2 [Compound 92, 4-(4-cyclobutylpiperazin-1-yl)-7-(2,3-dihydro-1,4-benzodioxin-6-ylmethyl)-5,6,7,8-tetrahydropyrido[3,4-d]pyrimidine] |  |  | inhibition at 4 µM (symbol ! in Ki, test compound 4 μM, 1 μM histamine, read-out: percent inhibition of agonist-induced GTP-gammaS binding to H3): ≥ 90%
3 | Cc1cccc(CN2CCc3cnc(N4CCN(C5CCC5)CC4)nc3CC2)n1 [Compound 238, 2-(4-cyclobutylpiperazin-1-yl)-7-[(6-methylpyridin-2-yl)methyl]-6,7,8,9-tetrahydro-5H-pyrimido[4,5-d]azepine] |  | ≥ 90 | 
4 | O=C(c1cccc(C(F)(F)F)c1)N1CCc2cnc(N3CCN(C4CCC4)CC3)nc2CC1 [Compound 397, 2-(4-cyclobutylpiperazin-1-yl)-7-[3-(trifluoromethyl)benzoyl]-6,7,8,9-tetrahydro-5H-pyrimido[4,5-d]azepine] | ≥ 90 |  | 
5 | CCC(C(=O)N1CCc2cnc(N3CCN(C4CCC4)CC3)nc2CC1)c1ccccc1 (stereo not drawn) [Compound 348, 2-(4-cyclobutylpiperazin-1-yl)-7-(2-phenylbutanoyl)-6,7,8,9-tetrahydro-5H-pyrimido[4,5-d]azepine] |  | ≥ 90 | 
6 | O=C(/C=C/c1cccc(F)c1)N1CCc2cnc(N3CCN(C4CCC4)CC3)nc2CC1 [Compound 553, 2-(4-cyclobutylpiperazin-1-yl)-7-[(2E)-3-(3-fluorophenyl)prop-2-enoyl]-6,7,8,9-tetrahydro-5H-pyrimido[4,5-d]azepine] | ≥ 90 |  | 
